pIC50: −log10 of the molar value.

Experiment [1] concerns the target T1, LIM kinase 1 (LIMK1) (Homo sapiens, UniProt P53667). As to the kind of experiment: apparent Km determination in luciferase ATP-depletion kinase assay with cofilin. It counts as biochemical.
Experiment [2] concerns the target T1, LIM kinase 1 (LIMK1). As to the kind of experiment: Kinase Glo luciferase ATP-depletion assay with recombinant cofilin, […] ATP. It counts as biochemical.

T1 sequence (P53667 339-604 limits assumed): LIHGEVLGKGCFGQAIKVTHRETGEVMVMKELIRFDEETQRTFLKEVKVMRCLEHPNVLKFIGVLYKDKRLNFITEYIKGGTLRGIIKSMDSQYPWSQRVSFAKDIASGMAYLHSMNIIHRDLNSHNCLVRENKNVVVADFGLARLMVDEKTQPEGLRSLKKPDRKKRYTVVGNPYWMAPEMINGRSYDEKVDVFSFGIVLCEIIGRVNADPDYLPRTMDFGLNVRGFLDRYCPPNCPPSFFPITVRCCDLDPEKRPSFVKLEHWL

Regarding `Nc1ncnc2c1ncn2[C@@H]1O[C@H](COP(=O)(O)OP(=O)(O)OP(=O)(O)O)[C@@H](O)[C@H]1O` [ATP], at LIM kinase 1 (LIMK1) [1], the Km was in the range of 10 to 20 µM. Regarding `COc1c(C=O)c(O)cc2c1C(=O)c1ccccc1C2=O` [damnacanthal], at LIM kinase 1 (LIMK1) [2], the pIC50 is 7.72.

(Values after article PMC3935456 (Journal of biomolecular screening, 2011).)
